Laboratory results from the supplement of paper PMC10307832.

What was measured:
Assay in all cases: relative viability (nuclei count vs DMSO), 5 days (fraction); higher = more cells survive
4EGI-1 + Crizotinib = compound: O=C(O)C(Cc1ccccc1[N+](=O)[O-])=NNc1nc(-c2ccc(Cl)c(Cl)c2)cs1 (mixture of isomers) [4EGI-1] + C[C@@H](Oc1cc(-c2cnn(C3CCNCC3)c2)cnc1N)c1c(Cl)ccc(F)c1Cl [Crizotinib] (partner 1 µM)
Method in brief: (§1)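 Each reported value is a median over duplicate plates. It expresses relative viability: treated-well nuclei count divided by vehicle-well nuclei count. Lung cancer cell lines in 1536-well plates were dosed by pin tool a day after seeding, alone with one drug or with a fixed anchor-drug dose plus five library-drug doses (not always all listed) in √10 steps, and nuclei were counted after 5 days.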

XMD8-85 + Dasatinib = compound: CN1CCN(CC1)C2=CC(=C(C=C2)NC3=NC=C4C(=N3)N(C5=CC=CC=C5C(=O)N4C)C)OC [XMD8-85] + Cc1nc(Nc2ncc(C(=O)Nc3c(C)cccc3Cl)s2)cc(N2CCN(CCO)CC2)n1 [Dasatinib] (partner 0.075 µM)
Method in brief: as §1

4EGI-1 + OSI-027 = compound: O=C(O)C(Cc1ccccc1[N+](=O)[O-])=NNc1nc(-c2ccc(Cl)c(Cl)c2)cs1 (mixture of isomers) [4EGI-1] + COc1cccc2cc(-c3nc([C@H]4CC[C@H](C(=O)O)CC4)n4ncnc(N)c34)[nH]c12 [OSI-027] (partner 0.5 µM)
Method in brief: as §1

XMD8-85 + Lapatinib = compound: CN1CCN(CC1)C2=CC(=C(C=C2)NC3=NC=C4C(=N3)N(C5=CC=CC=C5C(=O)N4C)C)OC [XMD8-85] + CS(=O)(=O)CCNCc1ccc(-c2ccc3ncnc(Nc4ccc(OCc5cccc(F)c5)c(Cl)c4)c3c2)o1 [Lapatinib] (partner 2 µM)
Method in brief: as §1

XMD8-85 + OSI-027 = compound: CN1CCN(CC1)C2=CC(=C(C=C2)NC3=NC=C4C(=N3)N(C5=CC=CC=C5C(=O)N4C)C)OC [XMD8-85] + COc1cccc2cc(-c3nc([C@H]4CC[C@H](C(=O)O)CC4)n4ncnc(N)c34)[nH]c12 [OSI-027] (partner 0.5 µM)
Method in brief: as §1

Cell Line: NCI-H1792
- relative viability (4EGI-1 + Crizotinib; first compound 0.5 µM): 0.963
- relative viability (4EGI-1 + Crizotinib; first compound 1.581 µM): 0.772
- relative viability (4EGI-1 + Crizotinib; first compound 5 µM): 0.963
- relative viability (4EGI-1 + Crizotinib; first compound 15.81 µM): 0.842
- relative viability (4EGI-1 + Crizotinib; first compound 50 µM): 0.823
- relative viability (XMD8-85 + Dasatinib; first compound 0.253 µM): 0.749
- relative viability (XMD8-85 + Dasatinib; first compound 2.53 µM): 1.15
- relative viability (XMD8-85 + Dasatinib; first compound 8 µM): 0.85
- relative viability (4EGI-1 + OSI-027; first compound 0.5 µM): 0.886
- relative viability (4EGI-1 + OSI-027; first compound 1.581 µM): 0.75
- relative viability (4EGI-1 + OSI-027; first compound 5 µM): 0.62
- relative viability (4EGI-1 + OSI-027; first compound 15.81 µM): 0.579
- relative viability (4EGI-1 + OSI-027; first compound 50 µM): 0.503
- relative viability (XMD8-85 + Lapatinib; first compound 0.08 µM): 0.893
- relative viability (XMD8-85 + Lapatinib; first compound 0.253 µM): 0.63
- relative viability (XMD8-85 + Lapatinib; first compound 2.53 µM): 0.675
- relative viability (XMD8-85 + Lapatinib; first compound 8 µM): 0.879
- relative viability (XMD8-85 + OSI-027; first compound 0.253 µM): 0.856
- relative viability (XMD8-85 + OSI-027; first compound 2.53 µM): 0.981
- relative viability (XMD8-85 + OSI-027; first compound 8 µM): 0.896
